Measurements from patent publication US8710017B2, “Human and mouse targeting peptides identified by phage display” (priority 2000, dated 2014).
Bridge positions count the residues as written; N and C are the ends. Ends that are not written are not given here.

Tests used:
endothelial cells = experiment: Endothelial cell migration (chemotaxis) assay with penetratin peptide chimeras; assay type: cell-based, human; conditions: VEGF-A 20 ng/ml, 5 h, FIG. 16
Protocol: FIG. 16. Effect of penetratin peptide chimeras on endothelial cell migration. Cell migration assay were performed in a 48-well microchemotaxis chamber. Five random high-power fields (magnitude 40×) were counted in each well.
Cell migration assays were performed as follows: 48-well microchemotaxis chambers were used. Polyvinylpyrrolidone-free polycarbonate filters (Nucleopore, Cambridge, Mass.) with 8-μm pores were coated with 1% gelatin for 10 min at room temperature and equilibrated in M199 medium supplemented with 2% FCS. Peptides were placed in the lower compartment of a Boyden chamber in M199 supplemented with 2% FCS, 20 ng/ml VEGF-A (R&D System), and 1 U/ml heparin. Overnight-starved subconfluent cultures were quickly trypsinized, and resuspended in M199 containing 2% FCS at a final concentration of 2×10^6 cells/ml. After the filter was placed between lower and upper chambers, 50 μl of the cell suspension was seeded in the upper compartment. Cells were allowed to migrate for 5 h at 37° C. in a humidified atmosphere with 5% CO2. The filter was then removed, and cells on the upper side were scraped with a rubber policeman. […] Five random high-power fields (magnitude 40×) were counted in each well.
Cell migration was assayed in a 48-well microchemotaxis chamber. […] Five random high-power fields (magnitude 40×) were counted in each well.

APA (SK-RC-49/APA cells) [1] = target: T1, APA (SK-RC-49/APA cells) (Homo sapiens, UniProt Q07075); experiment: Phage binding specificity assay on SK-RC-49/APA cells; assay type: cell-based
T1 construct: The renal carcinoma cell line SK-RC-49 was transfected with an expression vector encoding full-length APA cDNA; expressed in transfected cells; host or cells: SK-RC-49 renal carcinoma cells, stably transfected (G418)
Protocol: The cell binding assay was performed with an input of 10^9 TU as described for the cell panning. The specificity was confirmed by adding […] (SEQ ID NO:123) peptide to the binding medium in increasing concentrations. For phage binding on immunocaptured APA, wells were blocked for 1 h at room temperature with PBS/3% BSA and incubated with 10^9 TU for 1 h at room temperature in 50 μl PBS/3% BSA. After eight washes in PBS/1% BSA/0.01% Tween-20 and two washes in PBS, phage were rescued by adding 200 μl of exponentially growing K91Kan E. coli. Each experiment was repeated at least three times.

HUVECs [2] = experiment: HUVEC chemotaxis assay (Boyden chamber, VEGF-A); assay type: cell-based, human; conditions: 1 mM, VEGF-A 10 ng/ml, 5 h, FIG. 24
Protocol: FIG. 24. […] (SEQ ID NO:123) inhibits HUVEC migration. HUVECs were stimulated with VEGF-A (10 ng/ml). The assay was performed in a Boyden microchemotaxis chamber, and cells were allowed to migrate through an 8-μm pore filter for 5 h at 37° C. […] (SEQ ID NO:124) (control) and […] (SEQ ID NO:123) peptides were tested at 1 mM concentration. Migrated cells were stained and five high-power fields (magnitude 100×) for each microwell were counted. Error bars are the standard error of the means of triplicate microwells.
A cell migration assay was performed in a 48-well microchemotaxis chamber (NeuroProbe, Gaithersburg, Md.) according to Bussolini et al. (1995). Polyvinylpyrrolidone-free polycarbonate filters (Nucleopore, Cambridge, Mass.) with 8-μm pores were coated with 1% gelatin for 10 min at room temperature and equilibrated in M199 medium supplemented with 2% FCS. […] (SEQ ID NO:123) or control […] (SEQ ID NO:124) peptide (1 mM) was placed in the lower compartment of a Boyden chamber in M199 medium supplemented with 2% FCS and 10 ng/ml VEGF-A (R&D System). Subconfluent cultures that had been starved overnight were harvested in PBS containing 2.5 mM EDTA, washed once in PBS, and resuspended in M199 medium containing 2% FCS at a final concentration of 2×10^6 cells/ml. After the filter was placed between the lower and upper chambers, 50 μl of the cell suspension was seeded in the upper compartment, and cells were allowed to migrate for 5 h at 37° C. in a humidified atmosphere with 5% CO2. The filter was then removed, and cells on the upper side were scraped with a rubber policeman. Migrated cells were fixed in methanol and stained with Giemsa solution (Diff-Quick, Baxter Diagnostics, Rome, Italy). Five random high-power fields (magnitude 100×) were counted in each well. Each assay was run in triplicate.

HUVECs [3] = experiment: HUVEC cell growth assay (crystal violet, VEGF-A); assay type: cell-based, human; conditions: 1 mM, VEGF-A 10 ng/ml, FIG. 25
Protocol: FIG. 25. […] (SEQ ID NO:123) inhibits HUVEC proliferation. Cells were stimulated with VEGF-A (10 ng/ml), and growth was evaluated at the indicated times by a colorimetric assay based on crystal violet staining. Error bars are the standard error of the means of triplicate wells. Each experiment was repeated at least twice with similar results.
HUVECs were seeded in 48-well plates (10^4 cells/well) and allowed to attach for 24 h in complete M199 medium. The cells were then starved in M199 medium containing 2% FCS for 24 h. […] (SEQ ID NO:123) or control […] (SEQ ID NO:124) peptide (1 mM) was added to the wells in medium containing 2% FCS and 10 ng/ml VEGF-A (R&D System, Abingdom, UK). After incubation for the indicated times, cells were fixed in 2.5% glutaraldehyde, stained with 0.1% crystal violet in 20% methanol, and solubilized in 10% acetic acid. All treatments were done in triplicate. Cell growth was evaluated by measuring the O.D. at 590 nm in a microplate reader (Biorad, Hercules, Calif.). A calibration curve was established and a linear correlation between O.D. and cell counts was observed between 10^3 and 10^5 cells.

HUVECs [4] = experiment: Three-dimensional Matrigel culture of HUVECs (capillary-like network); assay type: cell-based, human; conditions: 1 mM, 24 h, not shown
Protocol: Matrigel (Collaborative Research, Bedford, Mass.) was added at 100 μl per well to 48-well tissue culture plates and allowed to solidify for 10 min at 37° C. HUVECs were starved for 24 h in M199 medium supplemented with 2% FCS before being harvested in PBS containing 2.5 mM EDTA. 10^4 cells were gently added to each of the triplicate wells and allowed to adhere to the gel coating for 30 min at 37° C. Then, medium was replaced with indicated concentrations of […] (SEQ ID NO:123) or […] (SEQ ID NO:124) peptides in complete medium. The plates were photographed after 24 h with an inverted microscope (Canon). The assay was repeated three times.

[5] = system: chicken chorioallantoic membrane (CAM); experiment: CAM assay for angiogenesis; assay type: in vivo; conditions: control peptide, 1 mM, not shown
Protocol: In vivo angiogenesis was evaluated by a CAM assay (Ribatti et al., 1994). Fertilized eggs from White Leghorn chickens were maintained in constant humidity at 37° C. On the third day of incubation, a square window was opened in the eggshell and 2-3 ml of albumen was removed to detach the developing CAM from the shell. The window was sealed with a glass plate of the same size and the eggs were returned to the incubator. At day 8, 1 mm^3 sterilized gelatin sponges (Gelfoam, Upjohn Co, Kalamazoo, Milan) were adsorbed with VEGF-A (20 ng, R&D System) and either […] (SEQ ID NO:123) or control […] (SEQ ID NO:124) peptide (1 mM) in 3 μl PBS and implanted on the top of the growing CAMs under sterile conditions. CAMs were examined daily until day 12 and photographed in ovo with a Leica stereomicroscope. Capillaries emerging from the sponge were counted. The assay was repeated twice.

[6] = target: T2, β5 integrin cytoplasmic domain (Homo sapiens, UniProt P18084); experiment: Phage binding to immobilized GST-β5cyto; conditions: for β5/GST Ratio: colonies from β5-GST wells divided by GST
T2 construct: the screenings involving the β5 cytoplasmic domain fusion protein
T2 sequence (P18084 743-799 limits assumed): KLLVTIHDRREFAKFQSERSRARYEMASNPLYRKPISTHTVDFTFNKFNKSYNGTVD
Protocol: FIG. 10. Binding of β5 cytoplasmic domain-selected phage to immobilized proteins. GST fusion proteins or GST alone were coated on microtiter wells at 10 μg/ml and used to bind phage expressing endostatin binding peptides. […] The data represent the mean colony counts from triplicate wells, with standard error less than 10% of the mean.
β3 and β5 cytoplasmic domain-binding peptides were isolated by screening multiple phage libraries with recombinant GST fusion proteins that contained either GST-β3cyto or GST-β5cyto coated onto microtiter wells. Immobilized GST was used as a negative control for enrichment during the panning of each cytoplasmic domain. Phage were sequenced from randomly selected clones after three rounds of panning as disclosed elsewhere (Koivunen et al., 1995; Pasqualini et al., 1995). Distinct sequences were isolated that interacted specifically with the β3 or with the β5 cytoplasmic domains (Table 9). Randomly selected clones from panning rounds II and III were sequenced. Amino acid sequences of the phagemid encoded peptides were deduced from nucleotide sequences. The ratios were calculated by dividing the number of colonies recovered from β3-GST-coated wells and those recovered from GST or BSA.
A similar strategy was used to determine the specificity of the phage isolated in the screenings involving the β5 cytoplasmic domain fusion protein.
To determine whether the binding of the selected motifs was specific for each cytoplasmic domain, binding assays were performed comparing the interaction of individual phage motifs with β1, β3, or β5 cytoplasmic domain fusion proteins. […] Both the β3- and β5-selected phage selectively interacted with the proteins on which they were originally selected, with average binding selectivities observed of β3/β1=3.9, β3/β5=3.7, β5/β1=4.8, and β5/β3=6.9 (not shown). The average selectivity for integrin cytoplasmic domains versus BSA was about one to two orders of magnitude (not shown). None of the phage tested seemed to bind strongly to the β1 cytoplasmic domain (not shown).

APA (SK-RC-49/APA cells) [7] = target: T1, APA (SK-RC-49/APA cells); experiment: Cell panning of CX3CX3CX3C phage library on SK-RC-49/APA cells (insert frequency); assay type: cell-based
Protocol: A CX3CX3CX3C(C, cysteine; X, any amino acid) library was prepared (Rajotte et al., 1998). […] Cells were detached by incubation with 2.5 mM EDTA in PBS, washed once in binding medium (DMEM high glucose supplemented with 20 mM HEPES and 2% FCS), and resuspended in the same medium at a concentration of 2×10^6 cells/ml. 10^10 TU of phage were added to 500 μl of the cell suspension, and the mixture was incubated overnight (first round) or for 2 h (successive rounds) at 4° C. with gentle rotation. Cells were washed five times in binding medium at room temperature and resuspended in 100 μl of the same medium. Phage were rescued by adding 1 ml of exponentially growing K91Kan Escherichia coli bacteria and incubating the mixture for 1 h at room temperature. Bacteria were diluted in 10 ml of LB medium supplemented with 0.2 μg/ml tetracycline and incubated for another 20 min at room temperature. Serial dilutions were plated on LB plates containing 40 μg/ml tetracycline, and plates were incubated at 37° C. overnight before colonies were counted.
The CX3CX3CX3C phage library (10^10 transducing units [TU]) was preadsorbed on parental SK-RC-49 cells to decrease nonspecific binding. […] SK-RC-49/APA-bound phage were amplified and used for two consecutive rounds of selection.

[8] = system: MDA-MB-435-derived tumor xenografts; experiment: In vivo tumor homing of APA-binding phage; design: species or system mouse; conditions: 10^9 TU iv, 5 min circulation, FIG. 22
Protocol: MDA-MB-435-derived tumor xenografts were established in female nude mice 2 months old (Jackson Labs, Bar Harbor, Me.). Mice were anesthetized with Avertin and injected intravenously through the tail vein with 10^9 TU of the phage in a 200 μl volume of DMEM. The phage were allowed to circulate for 5 min, and the animals were perfused through the heart with 5 ml of DMEM. The tumor and brain were dissected from each mouse, weighed, and equal amounts of tissue were homogenized. The tissue homogenates were washed three times with ice-cold DMEM containing a proteinase inhibitor cocktail and 0.1% BSA. Bound phage were rescued and counted as described for cell panning. Fd-tet phage was injected at the same input as a control. The experiment was repeated twice. In parallel, part of the same tissue samples were fixed in Bouin solution, and imbedded in paraffin for preparation of tissue sections. An antibody to M-13 phage (Amersham-Pharmacia) was used for the staining.

T1 sequence (Q07075 whole entry): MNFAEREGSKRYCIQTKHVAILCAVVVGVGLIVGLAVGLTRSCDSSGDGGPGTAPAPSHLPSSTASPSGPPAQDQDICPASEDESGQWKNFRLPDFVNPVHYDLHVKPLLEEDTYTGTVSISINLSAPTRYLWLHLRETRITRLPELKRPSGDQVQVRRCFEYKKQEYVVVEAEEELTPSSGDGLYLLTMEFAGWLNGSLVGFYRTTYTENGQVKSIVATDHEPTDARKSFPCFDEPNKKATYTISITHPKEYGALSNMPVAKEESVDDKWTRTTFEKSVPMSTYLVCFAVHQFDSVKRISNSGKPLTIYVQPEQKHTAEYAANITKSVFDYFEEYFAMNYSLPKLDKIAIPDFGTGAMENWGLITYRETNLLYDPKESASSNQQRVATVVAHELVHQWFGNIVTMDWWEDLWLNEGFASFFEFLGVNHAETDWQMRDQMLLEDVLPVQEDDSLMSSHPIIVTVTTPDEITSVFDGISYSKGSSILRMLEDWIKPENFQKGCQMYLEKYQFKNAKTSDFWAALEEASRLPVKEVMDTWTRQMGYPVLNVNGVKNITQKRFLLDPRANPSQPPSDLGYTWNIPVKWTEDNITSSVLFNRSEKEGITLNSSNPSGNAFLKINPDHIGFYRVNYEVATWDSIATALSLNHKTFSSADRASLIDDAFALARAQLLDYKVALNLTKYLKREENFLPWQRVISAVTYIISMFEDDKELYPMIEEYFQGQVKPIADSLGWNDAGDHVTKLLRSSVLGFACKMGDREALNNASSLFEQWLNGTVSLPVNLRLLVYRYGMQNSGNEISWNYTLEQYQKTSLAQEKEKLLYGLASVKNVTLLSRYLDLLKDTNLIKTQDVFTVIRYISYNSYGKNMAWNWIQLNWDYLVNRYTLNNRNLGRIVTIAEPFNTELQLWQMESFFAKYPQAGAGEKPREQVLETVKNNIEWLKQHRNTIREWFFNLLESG

Sequence: GLDTYRGSP [TYR-11 tested as penetratin chimera]
- effect on endothelial cell migration (endothelial cells): increase cell migration

Sequence: GACVRLSACGA (disulfide 3-9 (inferred)) [unrelated cyclic control peptide, reference compound]
- competition with CPKVCPRECESNC phage for binding to SK-RC-49/APA cells (APA (SK-RC-49/APA cells) [1]; soluble peptide in binding medium, not shown): no competitive activity
- inhibition of chemotaxis of HUVECs (HUVECs [2]): no significant effect
- inhibition of HUVEC proliferation (HUVECs [3]): no significant effect
- HUVEC morphogenesis / capillary-like network (HUVECs [4]): did not affect HUVEC morphogenesis
- effect on the number of growing vessels [5]: no effect

Sequence: CKLWQEDGY
- β5/GST Ratio [6]: 1.8

Sequence: DWFSYYEL
- β5/BSA Ratio ([6]; colonies from β5-GST wells divided by BSA): 153
- β5/GST Ratio [6]: 1.7

Sequence: CYNLCIRECESICGADGACWTWCADGCSRSC
- Round 2 (%) (APA (SK-RC-49/APA cells) [7]; share of 18 randomly selected phage inserts, round 2): 50%
- Round 3 (%) (APA (SK-RC-49/APA cells) [7]; share of phage inserts, round 3): 100%
- displacement of phage binding by CPRECESIC peptide (APA (SK-RC-49/APA cells) [1]; data not shown): displaced
- enrichment in tumor xenografts compared to brain tissue [8]: Neither CYNLCIRECESICGADGACWTWCADGCSRSC (SEQ ID NO:125) nor CLGQCASICVNDC (SEQ ID NO:126) phage showed any tumor-homing preference

Sequence: SDNRYIGSW [Y-18 tested as penetratin chimera]
- effect on endothelial cell migration (endothelial cells): increase cell migration
